Molecules are shown by their SMILES.

The first experiment deals with T1, MALT1 (Homo sapiens, UniProt Q9UDY8).
T1 sequence (Q9UDY8 1-824): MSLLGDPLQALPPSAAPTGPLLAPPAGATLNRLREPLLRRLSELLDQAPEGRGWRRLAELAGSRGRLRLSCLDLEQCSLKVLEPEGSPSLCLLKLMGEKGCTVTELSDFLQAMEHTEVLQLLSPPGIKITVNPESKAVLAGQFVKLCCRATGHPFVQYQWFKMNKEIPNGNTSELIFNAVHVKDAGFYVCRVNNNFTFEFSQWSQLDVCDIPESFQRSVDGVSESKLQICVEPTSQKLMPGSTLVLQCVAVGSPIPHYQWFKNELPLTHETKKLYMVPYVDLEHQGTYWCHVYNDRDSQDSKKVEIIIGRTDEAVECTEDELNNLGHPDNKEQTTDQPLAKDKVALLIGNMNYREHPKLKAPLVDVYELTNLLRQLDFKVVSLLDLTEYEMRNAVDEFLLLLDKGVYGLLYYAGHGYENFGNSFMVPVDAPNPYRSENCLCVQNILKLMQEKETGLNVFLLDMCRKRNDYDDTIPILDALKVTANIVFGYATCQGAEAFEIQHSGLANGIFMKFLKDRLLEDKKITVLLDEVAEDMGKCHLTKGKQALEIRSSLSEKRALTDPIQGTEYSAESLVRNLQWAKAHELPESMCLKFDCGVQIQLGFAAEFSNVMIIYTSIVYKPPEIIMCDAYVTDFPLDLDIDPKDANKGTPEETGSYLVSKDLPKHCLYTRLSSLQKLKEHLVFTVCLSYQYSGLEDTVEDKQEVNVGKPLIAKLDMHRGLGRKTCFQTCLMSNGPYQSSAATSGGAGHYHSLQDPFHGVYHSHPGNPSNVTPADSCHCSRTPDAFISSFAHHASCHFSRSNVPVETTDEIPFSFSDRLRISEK
The experiment in a line: MALT1 protease inhibition assay (AMC-labeled peptide, fluorescence 360/460). To be noted: substrate Ac-LRSR-AMC, 15 min preincubation, 90 min at 25° C. The class given is biochemical. In a few lines:
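Fluorogenic AMC-peptide cleavage read after 90 min at 25 °C, following a 15 min enzyme–compound preincubation at 25 °C in citrate protease buffer plus DTT. Compounds run as ten 3-fold dilutions in duplicate; percent inhibition relative to enzyme-only and enzyme-free controls, fitted to IC50.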
As usually defined, the IC50 is the concentration needed to halve the response being measured. A lower IC50 goes with inhibition by little substance. On to `Nc1ccccc1-c1cc(Cl)c(C(=O)Nc2cnc(-n3nccn3)c(Cl)c2)cc1F` [Example A109, 2′-amino-5-chloro-N-(5-chloro-6-(2H-1,2,3-triazol-2-yl)pyridin-3-yl)-2-fluoro-[1,1′-biphenyl]-4-carboxamide], for which the concentration for half-maximal inhibition (IC50) is at most 0.01 µM.

Compound `Nc1ccccc1-c1cc(F)c(C(=O)Nc2cnc(-n3nccn3)c(C(F)(F)F)c2)cc1Cl` [Example A110] gave an IC50 of at most 0.01 µM.

Regarding `Nc1cnc(F)c(Br)c1-c1cc(Cl)c(C(=O)Nc2cnc(-n3nccn3)c(C(F)(F)F)c2)cc1F` [Example A521, N-(6-(2H-1,2,3-triazol-2-yl)-5-(trifluoromethyl)pyridin-3-yl)-4-(5-amino-3-bromo-2-fluoropyridin-4-yl)-2-chloro-5-fluorobenzamide], the IC50 was at most 0.01 µM.

On to `C#Cc1cnc(C)c(N)c1-c1cc(Cl)c(C(=O)Nc2cnc(-n3nccn3)c(C(F)(F)F)c2)cc1F` [Example A551, N-(6-(2H-1,2,3-triazol-2-yl)-5-(trifluoromethyl)pyridin-3-yl)-4-(3-amino-5-ethynyl-2-methylpyridin-4-yl)-2-chloro-5-fluorobenzamide], for which the IC50 was at most 0.01 µM.

`C#Cc1cnc(F)c(N)c1-c1cc(Cl)c(C(=O)Nc2cnc(-n3nccn3)c(C(F)(F)F)c2)cc1F` [Example A552, N-(6-(2H-1,2,3-triazol-2-yl)-5-(trifluoromethyl)pyridin-3-yl)-4-(3-amino-5-ethynyl-2-fluoropyridin-4-yl)-2-chloro-5-fluorobenzamide] came in with an IC50 of at most 0.01 µM.

`C#Cc1cnc(Cl)c(N)c1-c1cc(Cl)c(C(=O)Nc2cnc(-n3nccn3)c(C(F)(F)F)c2)cc1F` [Example A553] returned a half-maximal inhibitory concentration (IC50) of at most 0.01 µM.

Consider `C#Cc1cnc(C#N)c(N)c1-c1cc(Cl)c(C(=O)Nc2cnc(-n3nccn3)c(C(F)(F)F)c2)cc1F` [Example A554, N-(6-(2H-1,2,3-triazol-2-yl)-5-(trifluoromethyl)pyridin-3-yl)-4-(3-amino-2-cyano-5-ethynylpyridin-4-yl)-2-chloro-5-fluorobenzamide], for which the IC50 is at most 0.01 µM.

On to `C#Cc1c(F)nc(C)c(N)c1-c1cc(Cl)c(C(=O)Nc2cnc(-n3nccn3)c(C(F)(F)F)c2)cc1F` [Example A556, N-(6-(2H-1,2,3-triazol-2-yl)-5-(trifluoromethyl)pyridin-3-yl)-4-(3-amino-5-ethynyl-6-fluoro-2-methylpyridin-4-yl)-2-chloro-5-fluorobenzamide], for which the IC50 is at most 0.01 µM.

`C#Cc1c(F)nc(F)c(N)c1-c1cc(Cl)c(C(=O)Nc2cnc(-n3nccn3)c(C(F)(F)F)c2)cc1F` [Example A557, N-(6-(2H-1,2,3-triazol-2-yl)-5-(trifluoromethyl)pyridin-3-yl)-4-(3-amino-5-ethynyl-2,6-difluoropyridin-4-yl)-2-chloro-5-fluorobenzamide] yielded an IC50 of at most 0.01 µM.

The compound `Nc1c(Cl)ncc(Br)c1-c1cc(Cl)c(C(=O)Nc2cnc(-n3nccn3)c(C(F)(F)F)c2)cc1F` [Example A558] returned an IC50 of at most 0.01 µM.

In another experiment the test system is IL-2 secretion of Jurkat cells (PMA/Ionomycin inducing). Put plainly: ELISA method to detect IL-2 secretion induced by PMA/Ionomycin. It counts as cell-based. To be noted: Homo sapiens, 20 h. The procedure:
12.5*10^3 Jurkat cells were seeded on a 96-well plate and incubated with various concentrations of compound solution for 30 min. Then, 500×PMA/Ionomycin stimulating factor was diluted with culture medium and added to the cell plate. […] The final concentrations of the compounds were 10000, 3333.3, 1111.1, 370.4, 123.5, 41.2, 13.7, 4.6, 1.5, 0 nM (The final concentration of DMSO is 0.5%). After incubation for 20 h, the supernatant was collected via centrifugation. The final IL-2 concentration was detected by ELISA method (IL-2 Duoset, R&D Systems, DY202). The signal value of each sample at a wavelength of 450 nm was collected by EnVision multifunctional microplate reader and converted to the IL-2 concentration via the ELISACalc.exe software. The IL-2 secretion inhibitory activity IC50 was fitted by GraphPad Prism software. The cell viability was tested simultaneously using the Cell-Titer Glo kit.
The compounds of the present invention show strong inhibitory effect on IL-2 secretion of Jurkat cells (PMA/Ionomycin inducing).
(In general: An ELISA detects its analyte on a solid surface through an enzyme-linked reagent.)
In the case of `Cc1nc(-c2ccc(F)cc2Cl)ncc1C(=O)Nc1cnc(-n2nccn2)c(C(F)(F)F)c1` [Example A12], 0.285 µM corresponded to half-maximal inhibition (IC50).

On to `Cc1cc(-c2ccc(F)cc2Cl)ccc1C(=O)Nc1cnc(-n2nccn2)c(C(F)(F)F)c1` [Example A16, N-(6-(2H-1,2,3-triazol-2-yl)-5-(trifluoromethyl)pyridin-3-yl)-2′-chloro-4′-fluoro-3-methyl-[1,1′-biphenyl]-4-carboxamide], for which the half-inhibitory concentration (IC50) was found to be 0.194 µM.

The compound `O=C(Nc1cnc(-n2nccn2)c(C(F)(F)F)c1)c1ccc(-c2ccc(F)cc2Cl)cc1Cl` [Example A17, N-(6-(2H-1,2,3-triazol-2-yl)-5-(trifluoromethyl)pyridin-3-yl)-2′,3-dichloro-4′-fluoro-[1,1′-biphenyl]-4-carboxamide] showed an IC50 of 0.191 µM.

`O=C(Nc1cnc(-n2nccn2)c(C(F)(F)F)c1)c1cnc(-c2ccc(F)cc2Cl)cc1Cl` [Example A18, N-(6-(2H-1,2,3-triazol-2-yl)-5-(trifluoromethyl)pyridin-3-yl)-4-chloro-6-(2-chloro-4-fluorophenyl)nicotinamide]: the half-inhibitory concentration (IC50) was determined as 0.598 µM.

For the compound `O=C(Nc1cnc(-n2nccn2)c(C(F)(F)F)c1)c1ccc(-c2ccc(F)cc2Cl)cc1C1CC1` [Example A19, N-(6-(2H-1,2,3-triazol-2-yl)-5-(trifluoromethyl)pyridin-3-yl)-2′-chloro-3-cyclopropyl-4′-fluoro-[1,1′-biphenyl]-4-carboxamide], the IC50 is 0.632 µM.

For `O=C(Nc1cnc(-n2nccn2)c(Cl)c1)c1ccc(-c2ccccc2Cl)cc1Cl` [Example A42], 0.471 µM corresponded to half-maximal inhibition (IC50).

As for `COc1ccccc1-c1ccc(C(=O)Nc2cnc(-n3nccn3)c(C(F)(F)F)c2)c(C)c1` [Example A64], half-maximal inhibition (IC50) was put at 0.463 µM.

`COc1ccccc1-c1cc(Cl)c(C(=O)Nc2cnc(-n3nccn3)c(C(F)(F)F)c2)cc1F` [Example A67] returned a half-inhibitory concentration (IC50) of 0.325 µM.

Turning to `Nc1ccccc1-c1cc(Cl)c(C(=O)Nc2cnc(-n3nccn3)c(C(F)(F)F)c2)cc1F` [Example A69], the IC50 turned out to be 0.195 µM.

The compound `O=C(Nc1cnc(-n2nccn2)c(Cl)c1)c1ccc(-c2ccncc2Cl)cc1Cl` [Example A100] came in with an IC50 of 0.369 µM.

The compound `O=C(Nc1cnc(-n2nccn2)c(Cl)c1)c1ccc(-c2ccc(F)cc2Br)cc1Cl` [Example A102] came in with an IC50 of 0.154 µM.

Turning to `COc1cc(F)ccc1-c1ccc(C(=O)Nc2cnc(-n3nccn3)c(Cl)c2)c(Cl)c1` [Example A104], half-maximal inhibition (IC50) required 0.294 µM.

For the compound `O=C(Nc1cnc(-n2nccn2)c(C(F)(F)F)c1)c1cc(F)c(-c2ccc(F)cc2Cl)cc1Cl` [Example A105], the midpoint of inhibition, the IC50, lay at 0.134 µM.

Compound `O=C(Nc1cnc(-n2nccn2)c(C(F)(F)F)c1)c1cc(F)c(-c2ccccc2Cl)cc1Cl` [Example A106, N-(6-(2H-1,2,3-triazol-2-yl)-5-(trifluoromethyl)pyridin-3-yl)-2′,5-dichloro-2-fluoro-[1,1′-biphenyl]-4-carboxamide] yielded an IC50 of 0.265 µM.

In turn, `Nc1ccccc1-c1cc(Cl)c(C(=O)Nc2cnc(-n3nccn3)c(Cl)c2)cc1F` [Example A109, 2′-amino-5-chloro-N-(5-chloro-6-(2H-1,2,3-triazol-2-yl)pyridin-3-yl)-2-fluoro-[1,1′-biphenyl]-4-carboxamide] gave an IC50 of 0.094 µM.

For `Nc1ccccc1-c1cc(F)c(C(=O)Nc2cnc(-n3nccn3)c(C(F)(F)F)c2)cc1Cl` [Example A110], the IC50 is 0.186 µM.

`Nc1ccccc1-c1cc(Cl)c(C(=O)Nc2cnc(-n3nccn3)c(C(F)(F)F)c2)cc1Cl` [Example A111, N-(6-(2H-1,2,3-triazol-2-yl)-5-(trifluoromethyl)pyridin-3-yl)-2′-amino-2,5-dichloro-[1,1′-biphenyl]-4-carboxamide] returned an IC50 of 0.283 µM.

Consider `COc1cc(F)ccc1-c1cc(Cl)c(C(=O)Nc2cnc(-n3nccn3)c(C(F)(F)F)c2)cc1F` [Example A112, N-(6-(2H-1,2,3-triazol-2-yl)-5-(trifluoromethyl)pyridin-3-yl)-5-chloro-2,4′-difluoro-2′-methoxy-[1,1′-biphenyl]-4-carboxamide], for which the IC50 worked out at 0.234 µM.

The compound `COc1ccccc1-c1cc(C)c(C(=O)Nc2cnc(-n3nccn3)c(Cl)c2)cc1F` [Example A117, N-(5-chloro-6-(2H-1,2,3-triazol-2-yl)pyridin-3-yl)-2-fluoro-2′-methoxy-5-methyl-[1,1′-biphenyl]-4-carboxamide] came in with a half-maximal inhibitory concentration (IC50) of 0.184 µM.

In turn, `COc1cc(F)ccc1-c1cc(C)c(C(=O)Nc2cnc(-n3nccn3)c(Cl)c2)cc1F` [Example A118, N-(5-chloro-6-(2H-1,2,3-triazol-2-yl)pyridin-3-yl)-2,4′-difluoro-2′-methoxy-5-methyl-[1,1′-biphenyl]-4-carboxamide] had an IC50 of 0.082 µM.

`C#Cc1cnccc1-c1cc(Cl)c(C(=O)Nc2cnc(C(=O)NCC(F)(F)F)c(Cl)c2)cc1F` [Example A429, 3-chloro-5-(2-chloro-4-(3-ethynylpyridin-4-yl)-5-fluorobenzamido)-N-(2,2,2-trifluoroethyl)picolinamide] returned an IC50 of 0.259 µM.

`CC(=O)c1cncc(N)c1-c1cc(Cl)c(C(=O)Nc2cnc(-n3nccn3)c(Cl)c2)cc1F` [Example A529, 4-(3-acetyl-5-aminopyridin-4-yl)-2-chloro-N-(5-chloro-6-(2H-1,2,3-triazol-2-yl)pyridin-3-yl)-5-fluorobenzamide]: 0.208 µM corresponded to half-maximal inhibition (IC50).
